This is an account of results in patent publication US9018249B2, “SGLT inhibitors” (Panacea Biotec Limited, priority 2011, dated 2015).

One test deals with T1, mouse SGLT-2 (Mus musculus, UniProt Q923I7).
T1 construct: Full-length mouse SGLT-2 cDNA was amplified from C57BL/6J mouse kidneys and introduced in the pcDNA3.1(+) expression vector; expressed in transfected cells; host or cells: CHO-K1 cells (American Type Culture Collection), stably transfected, G418-selected
T1 sequence (Q923I7 1-670): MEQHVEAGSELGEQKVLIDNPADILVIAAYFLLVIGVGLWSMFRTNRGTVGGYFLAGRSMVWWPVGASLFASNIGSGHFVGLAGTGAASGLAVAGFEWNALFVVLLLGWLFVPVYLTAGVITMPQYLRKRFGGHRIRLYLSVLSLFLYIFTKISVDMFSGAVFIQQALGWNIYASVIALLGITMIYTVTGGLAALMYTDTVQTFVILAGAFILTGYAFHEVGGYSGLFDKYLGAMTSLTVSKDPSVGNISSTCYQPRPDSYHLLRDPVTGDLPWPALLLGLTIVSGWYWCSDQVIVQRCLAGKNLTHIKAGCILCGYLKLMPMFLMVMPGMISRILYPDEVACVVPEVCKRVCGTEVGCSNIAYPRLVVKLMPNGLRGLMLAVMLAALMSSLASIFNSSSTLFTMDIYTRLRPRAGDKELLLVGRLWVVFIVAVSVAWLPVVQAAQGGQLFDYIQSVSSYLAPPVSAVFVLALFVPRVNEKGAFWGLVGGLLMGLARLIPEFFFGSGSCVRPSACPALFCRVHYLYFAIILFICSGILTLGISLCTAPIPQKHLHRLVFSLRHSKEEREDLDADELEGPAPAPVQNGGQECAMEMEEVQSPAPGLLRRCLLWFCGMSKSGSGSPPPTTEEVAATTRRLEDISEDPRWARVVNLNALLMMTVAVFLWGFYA
Kind of test: Methyl-α-D-[U-14C]glucopyranoside uptake assay for SGLT-2 in CHO-K1 cells. It is filed as cell-based. As to conditions: CHO-K1 cells expressing mSGLT-2, read-out: % inhibition of Methyl-α-D-[U-^14C] Glucopyranoside uptake (CHO-K1 cells) mediated by SGLT-2; for inhibition at 0.001 µM: 1 nM; for inhibition at 0.01 µM: 10 nM; for inhibition at 0.1 µM: 100 nM. As to the method:
Preparation of Mouse SGLT-2 Expressing Cells
Full-length mouse SGLT-2 cDNA was amplified from C57BL/6J mouse kidneys and introduced in the pcDNA3.1(+) expression vector (Invitrogen, Inc.) and propagated in Escherichia coli strain DH5α using LuriaBertani (LB) medium containing ampicillin. […] Stably transfected cells were selected using G418 antibiotic selection pressure.
Methyl-α-D-[U-^14C]Glucopyranoside Uptake Assay for SGLT-2
(§1) Cells expressing mSGLT-2 were seeded on 96-well tissue culture plates (Greiner, Inc.) in RPMI containing 10% FBS and 400 μg/mL G418 (0.8×10^5 cells per well in 200 μL medium) and incubated at 37° C. under 5% carbon dioxide for 24 h prior to the assay. Cells were washed twice with 200 μL of either sodium buffer (140 mM NaCl, 4.7 mM KCl, 2.2 mM CaCl2, 1.2 mM MgCl2, 10 mM Tris/Hepes, pH 7.4) or sodium-free buffer (137 mM N-methyl-glucamine, 4.7 mM KCl, 2.2 mM CaCl2, 1.2 mM MgCl2, 10 mM Tris/Hepes, pH 7.4). Reaction mixture containing test compounds at different concentrations diluted in assay buffer, 0.1 mM unlabeled Methyl-α-D-glucopyranoside and 1 μCi/well methyl-α-D-[U-^14C]glucopyranoside (American Radiochemicals) was added per well of a 96-well plate and incubated at 37° C. for 1 h. Cells were washed thrice with 200 μL of wash buffer (140 mM NaCl, 4.7 mM KCl, 2.2 mM CaCl2, 1.2 mM MgCl2, 10 mM Tris/Hepes, pH 7.4 containing 500 μM phlorizin) and lysed using 50 μL of 0.25N NaOH. Methyl-α-D-[U-^14C]glucopyranoside uptake was quantitated using a Top count scintillation counter (PerkinElmer, Inc.). All the test compounds were assayed in triplicates.

The target in another test is T2, human SGLT-1 (Homo sapiens, UniProt P13866).
T2 construct: Full-length human SGLT-1 cDNA in the pCMV-XL-Neo expression vector was obtained from Origene Corporation; host or cells: CHO-K1 cells (American Type Culture Collection), stably transfected, G418-selected
T2 sequence (P13866 1-664): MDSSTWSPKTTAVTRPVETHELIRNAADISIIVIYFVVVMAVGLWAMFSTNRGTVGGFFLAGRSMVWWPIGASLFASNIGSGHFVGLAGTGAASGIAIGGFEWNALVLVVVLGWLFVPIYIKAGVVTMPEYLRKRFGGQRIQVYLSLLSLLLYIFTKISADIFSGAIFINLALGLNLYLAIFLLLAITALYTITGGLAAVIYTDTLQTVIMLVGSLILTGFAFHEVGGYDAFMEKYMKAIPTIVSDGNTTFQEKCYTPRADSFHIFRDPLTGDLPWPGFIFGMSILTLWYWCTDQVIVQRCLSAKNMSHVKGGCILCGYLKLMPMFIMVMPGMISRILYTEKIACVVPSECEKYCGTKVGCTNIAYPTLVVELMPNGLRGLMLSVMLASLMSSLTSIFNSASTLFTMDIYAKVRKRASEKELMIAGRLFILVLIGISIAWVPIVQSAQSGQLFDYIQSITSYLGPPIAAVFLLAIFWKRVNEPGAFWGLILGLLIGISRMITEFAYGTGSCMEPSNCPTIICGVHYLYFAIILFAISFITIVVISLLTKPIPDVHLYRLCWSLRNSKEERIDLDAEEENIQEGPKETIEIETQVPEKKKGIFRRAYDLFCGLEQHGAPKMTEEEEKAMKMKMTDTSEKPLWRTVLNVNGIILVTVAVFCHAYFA
Put plainly: Methyl-α-D-[U-14C]glucopyranoside uptake assay for SGLT-1 in CHO-K1 cells. In kind it is cell-based. The note with it: CHO-K1 cells expressing hSGLT-1; for inhibition at 0.1 µM / inhibition at 1 µM / inhibition at 10 µM: read-out: % inhibition of Methyl-α-D-[U-^14C] Glucopyranoside uptake (CHO-K1 cells) mediated by SGLT-1. As to the method: Preparation of Human SGLT-1 Expressing Cells
Full-length human SGLT-1 cDNA in the pCMV-XL-Neo expression vector was obtained from Origene Corporation and propagated in Escherichia coli strain DH5α using Luria-Bertani (LB) medium containing ampicillin. […] Stably transfected cells were selected using G418 antibiotic selection pressure.
Methyl-α-D-[U-^14C]Glucopyranoside Uptake Assay for SGLT-1
as §1, with “hSGLT-1” for “mSGLT-2”, “800 μg/ml” for “400 μg/mL”, “compounds” for “compounds at different concentrations”, “1” for “0.1”, “Methyl-α-D[U-^14C]glucopyranoside” for “Methyl-α-D-[U-^14C]glucopyranoside”

In a further test the test system is C57BL/6J mice. Put plainly: Estimation of urinary glucose in C57BL/6J mice. In kind it is in vivo, mouse. The note with it: urine collected over 24 h. On the procedure:
Estimation of Urinary Glucose in C57BL/6J Mice
C57BL/6J mice were fasted 4 h before drug treatment. Fasted mice were weighed and randomized into different groups based on their body weight (n=6). At time T0 test compounds and standard compounds suspended in 0.25% CMC or PEG 400 formulation, were administered to respective groups and kept in metabolic cages (6 mice/cage) after dosing. Animals were fed after drug administration and urine was collected over a period of 24 h. Urinary volume was measured and urinary glucose was estimated using Merckotest Glucose Reagent (Merck Specialties Pvt. Ltd., India).

With `CCON=CCOc1ccc(Cc2cc([C@]34OC[C@](CO)(O3)[C@@H](O)[C@H](O)[C@H]4O)ccc2Cl)cc1` [Compound 11], on mouse SGLT-2, the inhibition (commonly the relative decrease from the control value, in per cent) at 0.001 µM was under 0%; the inhibition at 0.01 µM is 20.1%; the inhibition at 0.1 µM came to 50.8%. Besides, the inhibition at 0.1 µM at human SGLT-1 (100 nM) came out at 25.7%. In addition, at human SGLT-1, the inhibition at 1 µM stood at 53.7% and the inhibition at 10 µM came to 68.2%. The “UGE in mice (in mg/g of feed consumed) at 3 mpk” value in the test on C57BL/6J mice is recorded as 56.1 mg/g of feed consumed.
With `CON=C(C)COc1ccc(Cc2cc(C3O[C@H](OC)[C@@H](O)[C@H](O)[C@H]3O)ccc2Cl)cc1` (stereo partly shown) [Compound 30], at mouse SGLT-2, the inhibition at 0.001 µM was 35.6%, the inhibition at 0.01 µM turned out to be 37.3% and the inhibition at 0.1 µM is 54%. Besides, the inhibition at 0.1 µM at human SGLT-1 (100 nM) was found to be 24%. Moreover, on human SGLT-1, the inhibition at 1 µM was determined as 26.4% and the inhibition at 10 µM amounted to 77.9%.
As to `CON=CCCOc1ccc(Cc2cc(C3O[C@H](OC)[C@@H](O)[C@H](O)[C@H]3O)ccc2Cl)cc1` (stereo partly shown) [Compound 29], on mouse SGLT-2, the inhibition at 0.001 µM was 40.2%, the inhibition at 0.01 µM was determined as 37.9% and the inhibition at 0.1 µM was found to be 77.2%. In addition, the “% inhibition of Methyl-α-D-[U-^14C] Glucopyranoside uptake (CHO-K1 cells) mediated by SGLT-1” value at human SGLT-1 (100 nM) is “N.E”. On human SGLT-1, the inhibition at 1 µM came out at 70% and the inhibition at 10 µM is 92.9%.
